pIC50: −log10 of the molar value. One block for each molecule: values may come before it.
Molecular target: hDGAT2 (Homo sapiens (Human), UniProt Q96PD7)
Test: DGAT2 Enzymatic Activity Assay
Assay type: biochemical
Details: hDGAT2 Sf-9 membrane prep; 25 μM diolein, 10 μM oleoyl-CoA; triolein product by LC/MS/MS; read-out: IC50 values for inhibition of DGAT2
Experimental: Sf-9 insect cells were maintained in Grace's insect cell culture medium with 10% heated-inactivated fetal bovine serum, 1% Pluronic F-68 and 0.14 μg/ml Kanamycine sulfate in Erlenmeyer flasks at 28° C. in a shaker incubator. After infection with untagged hDGAT2 baculovirus at multiplicity of infection (MOI) 0.1 for 48 hours, cells were harvested. Cell pellets were suspended in buffer containing 10 mM Tris-HCl (pH 7.5), 1 mM EDTA (pH 8.0), 250 mM sucrose and Complete Protease Inhibitor Cocktail (Roche Diagnostics Corp., Indianapolis, Ill.), and sonicated on ice. Membrane fractions were isolated by ultracentrifugation (100,000×g pellet), resuspended in the same buffer, and frozen (−80° C.) for later use. The protein concentration was determined with the BCA Protein Assay kit (Pierce Biotechnology Inc., Rockford, Ill.). Expression of protein levels was analyzed by immunoblotting with goat polyclonal DGAT2 antibody C-15 and donkey anti-goat IgG HRP (Santa Cruz Biotechnology, Inc., Santa Cruz, Calif.) followed by detection with ECL reagent (GE Healthcare, Piscataway, N.J.).
LC/MS/MS analyses were performed using Thermal Fisher's LX4-TSQ Vantage system. This system consists of an Agilent binary high-performance liquid chromatography (HPLC) pumps and a TSQ Vantage triple quadrupole MS/MS instrument. For each sample, 2 μL, samples from the top organic layer of in-plate liquid-liquid extraction were injected onto a Thermo Betabasic C4 column (2.1 mm×20 mm, 5 μm particle size). The samples were then eluted using the following conditions; mobile phase: methanol/water with 0.1% ammonium format=92/8 (v/v), flow rate: 1 mL/min, temperature: 25 C. Data was acquired in positive mode using a heated electrospray ionization (HESI) interface. The operational parameters for the TSQ Vantage MS/MS instrument were a spray voltage of 3000 V, capillary temperature of 280° C., vaporizer temperature 400° C., shealth gas 60 arbitrary unit, Aux gas 40 arbitrary units, S-lens 113 and collision gas 0.16 Pascals. […] (SRM) chromatograms of triolein (Q1: 902.9>Q3: 602.3) and internal standard (Q1: 902.9>Q3: 602.3) were collected for 40 sec. The peak area was integrated by Xcalibur Quan software. The ratio between the triolein generated in the reaction and spiked in internal standard were used to generate percentage inhibition and IC50 values. Compound percentage inhibition was calculated by the following formula: Inhibition %=1-[(compound response low control)/(high control low control)]×100%. Potent compounds were titrated and IC50 were calculated by 4 parameter sigmoidal curve fitting formula.
DGAT2 activity was determined by measuring the amount of enzymatic product triolein (1,2,3-Tri(cis-9-octadecenoyl)glycerol) using the membrane prep mentioned above. The assay was carried out in deep well 384 plates in a final volume of 40 μL at room temperature. The assay mixture contained the following: assay buffer (100 mM Tris.Cl, pH 7.0, 20 mM MgCl2, 5% ethanol), 25 μM of diolein, 10 μM of oleoyl-CoA and 10 ng/μL of DGAT2 membrane.

hDGAT2, sequence (Q96PD7 whole entry): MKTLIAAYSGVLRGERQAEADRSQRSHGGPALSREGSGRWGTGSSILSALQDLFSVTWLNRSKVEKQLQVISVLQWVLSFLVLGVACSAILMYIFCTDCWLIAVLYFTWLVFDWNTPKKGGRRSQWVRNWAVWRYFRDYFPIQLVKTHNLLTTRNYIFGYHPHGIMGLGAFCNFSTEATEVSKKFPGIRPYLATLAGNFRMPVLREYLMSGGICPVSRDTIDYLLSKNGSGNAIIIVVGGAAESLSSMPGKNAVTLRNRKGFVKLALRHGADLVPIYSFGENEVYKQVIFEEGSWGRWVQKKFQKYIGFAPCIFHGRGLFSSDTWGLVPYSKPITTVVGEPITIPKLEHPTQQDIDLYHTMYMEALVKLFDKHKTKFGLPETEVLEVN

Compound: COc1cccc(-c2ccc(CNC(=O)[C@@H]3C[C@H]3c3ccccc3)c3c2CCN(C(=O)C(O)C(F)(F)F)C3)c1 (relative stereo) [Example 119, (trans)-N-((5-(3-methoxyphenyl)-2-(3,3,3-trifluoro-2-hydroxypropanoyl)-1,2,3,4-tetrahydroisoquinolin-8-yl)methyl)-2-phenylcyclopropanecarboxamide]
pIC50: 5.81

Compound: COC(=O)c1cccc(-c2ccc(CNC(=O)C3CC3c3ccccc3)c3c2CCN(C(=O)c2cnoc2C(C)C)C3)c1 (centres unmarked) [Example 122, methyl 3-(2-(5-isopropylisoxazole-4-carbonyl)-8-((2-phenylcyclopropanecarboxamido)methyl)-1,2,3,4-tetrahydroisoquinolin-5-yl)benzoate]
pIC50: 5.26

Compound: COCCC(=O)N1CCc2c(-c3cccc(C(=O)OC)c3)ccc(CNC(=O)C3CC3c3ccccc3)c2C1 (centres unmarked) [Example 126, methyl 3-(2-(3-methoxypropanoyl)-8-((2-phenylcyclopropanecarboxamido)methyl)-1,2,3,4-tetrahydroisoquinolin-5-yl)benzoate]
pIC50: 5.75

Compound: Cc1noc(C2CC2C(=O)NCc2ccc(-c3cccc(OC(F)(F)F)c3)c3c2CN(CC(=O)NC2CC2)CC3)n1 (centres unmarked) [Example 82, N-((2-(2-(cyclopropylamino)-2-oxoethyl)-5-(3-(trifluoromethoxy)phenyl)-1,2,3,4-tetrahydroisoquinolin-8-yl)methyl)-2-(3-methyl-1,2,4-oxadiazol-5-yl)cyclopropanecarboxamide]
pIC50: 6.14

Compound: COc1cccc(-c2ccc(CNC(=O)[C@H]3C[C@@H]3c3ccccc3)c3c2CCN(Cc2cc(F)cc(F)c2)C3)c1 (relative stereo) [Example 92, (trans)-N-((2-(3,5-difluorobenzyl)-5-(3 methoxyphenyl)-1,2,3,4-tetrahydroisoquinolin-8-yl)methyl)-2-phenylcyclopropanecarboxamide]
pIC50: 5.94

Compound: Cc1noc(C2CC2C(=O)NCc2ccc(-c3cccc(OC(F)(F)F)c3)c3c2CN(C(=O)NC2CCS(=O)(=O)C2)CC3)n1 (centres unmarked) [Example 60, N-(1,1-dioxidotetrahydrothiophen-3-yl)-8-((2-(3-methyl-1,2,4-oxadiazol-5-yl)cyclopropanecarboxamido)methyl)-5-(3-(trifluoromethoxy)phenyl)-3,4-dihydroisoquinoline-2(1H)-carboxamide]
pIC50: 6.33

Compound: COc1cccc(-c2ccc(CNC(=O)[C@@H]3C[C@H]3c3ccccc3)c3c2CCN(C(=O)NCCCC(=O)O)C3)c1 (relative stereo) [Example 64, 4-(5-(3-methoxyphenyl)-8-(((trans)-2-phenylcyclopropanecarboxamido)methyl)-1,2,3,4-tetrahydroisoquinoline-2-carboxamido)butanoic acid]
pIC50: 5.37

Compound: Cc1noc(C2CC2C(=O)NCc2ccc(-c3cccc(OC(F)(F)F)c3)c3c2CN(CC(=O)NC(C)(C)C)CC3)n1 (centres unmarked) [Example 80, N-((2-(2-(tert-butylamino)-2-oxoethyl)-5-(3-(trifluoromethoxy)phenyl)-1,2,3,4-tetrahydroisoquinolin-8-yl)methyl)-2-(3-methyl-1,2,4-oxadiazol-5-yl)cyclopropanecarboxamide]
pIC50: 6.32

Compound: COc1ccc(CNC(=O)CN2CCc3c(-c4cccc(OC(F)(F)F)c4)ccc(CNC(=O)C4CC4c4nc(C)no4)c3C2)c(OC)c1 (centres unmarked) [Example 85, N-((2-(2-((2,4-dimethoxybenzyl)amino)-2-oxoethyl)-5-(3-(trifluoromethoxy)phenyl)-1,2,3,4-tetrahydroisoquinolin-8-yl)methyl)-2-(3-methyl-1,2,4-oxadiazol-5-yl)cyclopropanecarboxamide]
pIC50: 5.81

Molecules with a higher pIC50, results first:

pIC50: 7.01
Compound: CC(C)(C)NC(=O)N1CCc2c(-c3cccc(-n4nccn4)c3)ccc(CNC(=O)[C@@H]3C[C@H]3c3ccccc3)c2C1 (relative stereo) [Example 48, 5-(3-(2H-1,2,3-triazol-2-yl)phenyl)-N-(tert-butyl)-8-(((trans)-2-phenylcyclopropanecarboxamido)methyl)-3,4-dihydroisoquinoline-2(1H)-carboxamide]

pIC50: 8.95
Compound: COC(=O)c1cccc(-c2ccc(CNC(=O)[C@H]3C[C@@H]3c3ccccc3)c3c2CCN(C(=O)NC2(C)CC2)C3)c1 (relative stereo) [Example 54, methyl 3-(2-((1-methylcyclopropyl)carbamoyl)-8-(((trans)-2-phenylcyclopropanecarboxamido)methyl)-1,2,3,4-tetrahydroisoquinolin-5-yl) benzoate]

pIC50: 6.66
Compound: COC(=O)c1cccc(-c2ccc(CNC(=O)C3CC3c3ccccc3)c3c2CCN(C(=O)c2ccccc2F)C3)c1 (centres unmarked) [Example 139, methyl 3-(2-(2-fluorobenzoyl)-8-((2-phenylcyclopropanecarboxamido)methyl)-1,2,3,4-tetrahydroisoquinolin-5-yl)benzoate]

pIC50: 9.18
Compound: CCOC(=O)c1cncc(-c2ccc(CNC(=O)[C@@H]3C[C@H]3c3ccccc3)c3c2CCN(C(=O)NC(C)(C)C)C3)c1 (relative stereo) [Example 46, ethyl 5-(2-(tert-butylcarbamoyl)-8-(((trans)-2-phenylcyclopropanecarboxamido)methyl)-1,2,3,4-tetrahydroisoquinolin-5-yl)nicotinate]

pIC50: 6.90
Compound: Cc1noc([C@@H]2C[C@H]2C(=O)NCc2ccc(-c3cccc(C(F)(F)F)c3)c3c2CN(C(=O)Nc2ccon2)CC3)n1 (relative stereo) [Example 26, N-(isoxazol-3-yl)-8-(((trans)-2-(3-methyl-1,2,4-oxadiazol-5-yl)cyclopropanecarboxamido)methyl)-5-(3-(trifluoromethyl)phenyl)-3,4-dihydroisoquinoline-2(1H)-carboxamide]

pIC50: 6.44
Compound: COC(=O)c1cccc(-c2ccc(CNC(=O)C3CC3c3ccccc3)c3c2CCN(C(=O)C2CC2C)C3)c1 (centres unmarked) [Example 131, methyl 3-(2-(2-methylcyclopropanecarbonyl)-8-((2-phenylcyclopropanecarboxamido)methyl)-1,2,3,4-tetrahydroisoquinolin-5-yl)benzoate]

pIC50: 7.87
Compound: COc1cccc(-c2ccc(CNC(=O)[C@@H]3C[C@H]3c3nc(C)no3)c3c2CCN(C(=O)NC2(C)COC2)C3)c1 (relative stereo) [Example 53, 5-(3-methoxyphenyl)-8-(((trans)-2-(3-methyl-1,2,4-oxadiazol-5-yl)cyclopropanecarboxamido)methyl)-N-(3-methyloxetan-3-yl)-3,4-dihydroisoquinoline-2(1H)-carboxamide]

pIC50: 6.55
Compound: COC(=O)c1cccc(-c2ccc(CNC(=O)C3CC3c3ccccc3)c3c2CCN(C(=O)c2ccc(F)cc2)C3)c1 (centres unmarked) [Example 141, methyl 3-(2-(4-fluorobenzoyl)-8-((2-phenylcyclopropanecarboxamido)methyl)-1,2,3,4-tetrahydroisoquinolin-5-yl)benzoate]

pIC50: 8.24
Compound: CC(C)(C)NC(=O)N1CCc2c(-c3cccc(-c4ncon4)c3)ccc(CNC(=O)C3C[C@H]3c3ccccc3)c2C1 (stereo partly drawn) [Example 51, 5-(3-(1,2,4-oxadiazol-3-yl)phenyl)-N-(tert-butyI)-8-(((trans)-2-phenylcyclopropanecarboxamido)methyl)-3,4-dihydroisoquinoline-2(1H)-carboxamide]

pIC50: 7.05
Compound: COc1cccc(-c2ccc(CNC(=O)[C@@H]3C[C@H]3c3ccccc3)c3c2CCN(C(=O)NC2COC2)C3)c1 (relative stereo) [Example 74, 5-(3-methoxyphenyl)-N-(oxetan-3-yl)-8-(((trans)-2-phenylcyclopropanecarboxamido)methyl)-3,4-dihydroisoquinoline-2(1H)-carboxamide]

pIC50: 7.98
Compound: CC(C)(C)NC(=O)N1CCc2c(-c3cccc(-c4nnco4)c3)ccc(CNC(=O)[C@@H]3C[C@H]3c3ccccc3)c2C1 (relative stereo) [Example 49, 5-(3-(1,3,4-oxadiazol-2-yl)phenyl)-N-(tert-butyl)-8-(((trans)-2-phenylcyclopropanecarboxamido)methyl)-3,4-dihydroisoquinoline-2(1H)-carboxamide]
